Reference: US10709707B2, “Methods of treating ocular conditions” (Oyster Point Pharma, Inc., priority 2016, dated 2020)
Read-outs that look alike come from different tables or passages of the source.

Experiments:
[1] = test system: subjects (intranasal administration); experiment: Panel of compounds administered intranasally: effect on tearing and discomfort response
Procedure: (§2) A panel of twenty compounds with various receptor binding profiles, including other nicotinic acetylcholine receptor (nAchR) agonists were tested. At the onset of the experiment, 50 microliters of a 0.01 mg/mL compound formulation was administered intranasally to three subjects.

[2] = test system: formalin test; experiment: Analgesic effects, formalin test; format: in vivo, Mouse: CD-1; settings: Compound 1 0.1, 1 and 10 mg/kg, Aspirin 100 mg/kg, Morphine 30 mg/kg; for analgesic effects after formalin injection, Day 1: po
[3] = test system: subjects (intranasal administration); settings: in vivo
Procedure: as §2

[4] = test system: paclitaxel-induced neuropathy, allodynia; experiment: Reversing symptoms of paclitaxel-induced neuropathy; format: in vivo, Rat; settings: 100 mg/kg ip, 90 min before testing, Weeks 3 and 4 post-paclitaxel
[5] = test system: behavioral sensitization; experiment: CNS safety pharmacology, behavioral sensitization by motor activity; format: in vivo, Rat: Sprague-Dawley; settings: Compound 1 3, 10, 30 mg/kg po
[6] = test system: cryopreserved hepatocytes; experiment: 24-hour incubation in cryopreserved hepatocytes (monkey); format: in vitro ADME
From the text: (§1) In human and monkey, the primary route of metabolism was through oxidation of the pyrrolidine ring (metabolite M02) before further metabolism via dioxidation to M1 or M3. In humans, parent accounted for 37% of extracellular radioactivity, M02 was 13.9%.M1 was 4.1% and M3 was 1.1%. In monkey, parent accounted for 14.2%, M02 was 5.0%, M1 was 5.8% and M3 was 29.4%. In the rat, the primary metabolite is an N-oxide-pyrimidine derivative (M9); it accounted for 71.9% of extracellular radioactivity while parent represented only 1.4%.

[7] = metabolism in vivo after single po dose in rats; settings: rat, 30 mg/kg
Procedure: The main metabolite in plasma and urine was M9; in plasma from 6 to 24 hours post-dose an unknown polar metabolite (M13) accounted for a significant portion of total radioactivity. In plasma, parent accounted for 11.7% of AUC0-24 total radioactivity, M9 accounted for 20.9% and M13 accounted for 15.9%. In urine (the primary route of elimination) over a 24 hours period, parent accounted for 17.8% of total radioactivity, M9 accounted for 37.7% and M13 accounted for 0.7%.

[8] = excretion of radioactivity in Sprague-Dawley rat; settings: 30 mg/kg po
[9] = test system: cryopreserved hepatocytes from rat, dog, monkey and human; experiment: 24-hour incubation in cryopreserved hepatocytes, species comparison; format: in vitro ADME
From the text: as §1

[10] = excretion of radioactivity in monkey; format: in vivo; settings: for administered radioactive dose recovered in cage wash / administered radioactive dose recovered in diet debris / administered radioactive dose recovered in feces / administered radioactive dose recovered in urine / administered radioactive dose recovered, total: 168-hour period
[11] = test system: cryopreserved hepatocytes; experiment: 24-hour incubation in cryopreserved hepatocytes (rat); format: in vitro ADME
From the text: as §1

[12] = test system: cryopreserved hepatocytes; experiment: 24-hour incubation in cryopreserved hepatocytes (human); format: in vitro ADME
From the text: as §1

[13] = distribution studies with [14C]-Compound 1 in Long Evans and Sprague-Dawley rat; format: in vivo
From the text: In male and female Sprague-Dawley rats, tissue distribution appeared similar to that of the Long Evans rat.

[14] = test system: STZ rat model of diabetic neuropathy; experiment: Mechanical allodynia, STZ rat model of diabetic neuropathy; format: in vivo, Rat: Sprague-Dawley; settings: insulin-treated group
[15] = 50 microliters intranasally, three subjects, 0.01 mg/mL increased logarithmically up to 10 mg/mL

For `Cc1cc([C@@H]2CCCN2C)on1` [ABT-418], the “Causes Tearing” value [1, 15] was “Yes” and the “Discomfort Response” value [1, 15] was “Moderate”.
In the case of `CC(=O)Oc1ccccc1C(=O)O` [Aspirin], the “analgesic effects after formalin injection, Day 1” value [2] is reported as “mg/kg) and Aspirin at 100 mg/kg failed”.
With `O=Cc1ccccc1` [Benzaldehyde] the “Causes Tearing” value [1, 15] was “No” and the “Discomfort Response” value [1, 15] was “No”.
In the case of `CNCCc1ccccn1` [Betahistine], the “Causes Tearing” value [1, 15] is reported as “No” and the “Discomfort Response” value [1, 15] is reported as “No”.
With `CC12CCC(CC1=O)C2(C)C` (stereo not drawn) [Camphor] the “Causes Tearing” value [1, 15] was “No” and the “Discomfort Response” value [1, 15] was “No”.
For `COc1cc(CNC(=O)CCCC/C=C/C(C)C)ccc1O` [Capsaicin], the “Causes Tearing” value [1, 15] was “Yes” and the “Discomfort Response” value [1, 15] was “Severe”.
For `Cc1ccc(C(C)C)cc1O` [Carvacrol], the “Causes Tearing” value [1, 15] was “Yes” and the “Discomfort Response” value ([1]; in vivo) was “Severe”.
For `O=c1cccc2n1C[C@@H]1CNC[C@H]2C1` [Cytisine], the “Causes Tearing” value ([1]; in vivo) was “Partial” and the “Discomfort Response” value [3] was “Moderate”.
For `CC[N+](CC)(CC(=O)Nc1c(C)cccc1C)Cc1ccccc1` [Denatonium], the “Causes Tearing” value [1, 15] was “No” and the “Discomfort Response” value [1, 15] was “No”.
With `CCOc1cc(C=O)ccc1O` [Ethylvanillin] the “Causes Tearing” value [1, 15] was “No”.
In the case of `CC12CCC(CC1)C(C)(C)O2` [Eucaliptol], the “Causes Tearing” value [1, 15] is reported as “No” and the “Discomfort Response” value [1, 15] is reported as “No”.
With `C=CCc1ccc(O)c(OC)c1` [Eugenol] the “Causes Tearing” value [1, 15] was “No” and the “Discomfort Response” value [1, 15] was “No”.
In the case of `COc1ccc(/C=C2\CCCN=C2c2cccnc2)c(OC)c1` [GTS-21], the “Causes Tearing” value [1, 15] is reported as “Yes” and the “Discomfort Response” value [1, 15] is reported as “Severe”.
In the case of `NCC1(CC(=O)O)CCCCC1` [Gabapentin, reference compound], the reversing allodynia [4] is reported as 100 mg/kg, was effective at reversing.
In the case of `CC(C)=CCC/C(C)=C/CO` [Geraniol], the “Causes Tearing” value [1, 15] is reported as “No” and the “Discomfort Response” value [1, 15] is reported as “No”.
With `CC1CCC(C(C)C)C(O)C1` (stereo not drawn) [Menthol] the “Causes Tearing” value [1, 15] was “No” and the “Discomfort Response” value [1, 15] was “No”.
With `CN1CC[C@]23c4c5ccc(O)c4O[C@H]2[C@@H](O)C=C[C@H]3[C@H]1C5` [Morphine] the “analgesic activity after formalin injection, Day 7” value ([2]; once daily for 7 days po) was “mg/kg) persisted on Day 7” and the “analgesic effects after formalin injection, Day 1” value [2] was “mg/kg, po) produced a significant”.
For `CN1CCCC1c1cccnc1` (stereo not drawn) [Nicotine], the “Causes Tearing” value [1, 15] was “Yes”, the “Discomfort Response” value [3] was “Severe” and the “behavioral sensitization (motor activity)” value [5] was “marked behavioral sensitization”.
For `O=C(N[C@H]1CN2CCC1CC2)c1cc2ccoc2cn1` [PHA-543613], the “Causes Tearing” value [1, 15] was “No” and the “Discomfort Response” value [1, 15] was “No”.
In the case of `CC(C)=C1CC[C@@H](C)CC1=O` [Pulegone], the “Causes Tearing” value [1, 15] is reported as “No” and the “Discomfort Response” value ([1]; in vivo) is reported as “No”.
With `O=C(N[C@@H]1C2CCN(CC2)[C@H]1Cc1cccnc1)c1cc(F)cc(F)c1` [TC-6987] the “Causes Tearing” value [1, 15] was “No” and the “Discomfort Response” value [1, 15] was “No”.
For `c1cnc2cc3c(cc2n1)[C@@H]1CNC[C@H]3C1` [Varenicline], the “Causes Tearing” value [1, 15] was “Yes” and the “Discomfort Response” value [1, 15] was “No”.
With `C(=C\[C@H]1CCNC1)/c1cncnc1` [[^14C]-Compound 1] the “share of extracellular radioactivity” value [6] was 14.2%, the “extent of metabolism in vivo” value [7] was “extensively metabolized” and the “share of AUC0-24 total radioactivity in plasma” value [7] was 11.7%. For the same compound, the “share of total radioactivity in urine” value [7] was 17.8%, the “time by which nearly all recovered radioactivity was eliminated” value [8] was no more than 24 h and the “administered dose recovered in feces” value ([8]; 168 hour period) was 10.9%. For the same compound, the “administered dose recovered in urine” value ([8]; 168 hour period) was 77.6%, the “administered dose recovered, total” value ([8]; 168 hour period post-dose) was 91.2% and the “species ranking of metabolism” value [9] was “rat>monkey>human>dog”. For the same compound, the extent of metabolism ([9]; depending on species) was “slightly to moderately metabolized”, the “time by which nearly all recovered radioactivity was eliminated” value ([10]; 5 mg/kg iv infusion) was no more than 24 h and the “administered radioactive dose recovered in cage wash” value ([10]; 5 mg/kg iv infusion) was 7.6%. The “administered radioactive dose recovered in diet debris” value ([10]; 5 mg/kg iv infusion) was 6.9%, the “administered radioactive dose recovered in feces” value ([10]; 5 mg/kg iv infusion) was 7.6% and the “administered radioactive dose recovered in urine” value ([10]; 5 mg/kg iv infusion) was 70.7%. The “administered radioactive dose recovered, total” value ([10]; 5 mg/kg iv infusion) was 93.0%, the “time by which nearly all recovered radioactivity was eliminated” value ([10]; 10 mg/kg po) was no more than 48 h and the “administered radioactive dose recovered in cage wash” value ([10]; 10 mg/kg po) was 10.2%. For the same compound, the “administered radioactive dose recovered in diet debris” value ([10]; 10 mg/kg po) was 6.6%, the “administered radioactive dose recovered in feces” value ([10]; 10 mg/kg po) was 12.8% and the “administered radioactive dose recovered in urine” value ([10]; 10 mg/kg po) was 60.7%. The “administered radioactive dose recovered, total” value ([10]; 10 mg/kg po) was 90.3%, the “share of extracellular radioactivity” value [11] was 1.4% and the “share of extracellular radioactivity” value [12] was 37%. For the same compound, the “tissue with highest concentration of radioactivity at final sampling time” value ([13]; male Long Evans rat, 1 mg/kg po, 168 hours) was “adrenal medulla” and the “tissue with highest concentration of radioactivity at final sampling time” value ([13]; male and female Sprague-Dawley rats, 30 mg/kg po, 24 hours) was “adrenal medulla”.
In the case of “insulin: insulin-treated group in the STZ rat model”, the “significant improvement in pain sensitivity” value [14] is reported as “glucose levels but no”.
